{"source": "patent US7776572B2", "about": "“Method for reducing loss of enzyme activity during storage” (Corning Incorporated, priority 1996, dated 2010)", "key": {"IgG [1]": {"system": "IgG", "test": "IgG/Au staining of coated polystyrene, type of endgroups", "experimental": "Except where indicated, the non-ionic surfactants were applied to the hydrophobic surfaces being tested as a 0.1% (weight/volume) solution in isopropanol. A sufficient amount of coating solution was used to cover the surface being testing with a thin layer of the solution (e.g., 25 μl of the solution per well for a standard 24-well plate). In some cases, the solution was applied to surface by spraying; in others, it was poured onto the surface (into the well). Except where indicated, coated samples were either dried at 70° C. for 30 minutes in an air circulated oven or dried at room temperature overnight to evaporate the isopropanol. Protein binding was determined in some examples using a colloidal gold straining procedure. In accordance with this procedure, colloidal gold becomes electrostatically attached to bound protein and is detected by measuring absorbance at 550 nanometers. Bio-Rad Laboratories' Colloidal Gold Total Protein Stain was used for this purpose, with absorbance being measured with a Cambridge Technologies Plate Reader (No. 7520). The non-ionic surfactants listed in Table 6 were tested for their ability to produce a low binding surface using the techniques described in Materials and Methods. Polystyrene was used as the hydrophobic test surface and IgG/Au staining was used as the readout."}, "[2]": {"system": "BSA protein (Bovine Serum Albumin, Fraction V)", "test": "BSA binding to coated polystyrene 24-well plates at different pH, colloidal gold stain", "details": "for Absorbance (550 nm) pH = 9.2: BSA 10 μg/ml in 0.10 M NaHCO3 buffer; for Absorbance (550 nm) pH = 7.4: BSA 10 μg/ml in 0.10 M PBS; for Absorbance (550 nm) pH = 4.6: BSA 10 μg/ml in 0.10 M acetate buffer", "experimental": "Polystyrene plates having 24 wells (Corning Costar #9447) were coated as described in Materials and Methods.\nBSA protein (Bovine Serum Albumin, Fraction V, Sigma) was prepared at 10 μg/ml in 0.10 M acetate buffer (pH=4.6), in 0.10 M PBS (pH=7.4), and in 0.10 M NaHCO3 buffer (pH=9.2). Wells of each coated plate, along with uncoated controls, were aliquoted 0.50 ml each of the protein solutions. The samples were run in triplicate.\nThe plates were placed on a rocker table for 30 minutes at 23° C. The protein solutions were then emptied from the plates, and the wells were rinsed three times with dl H2O. Thereafter, 1.0 ml of colloidal gold stain was added to each well (see Materials and Methods). The plates were placed on a rocker table overnight, rinsed three times with dI H2O, and air dried. Absorbance at 550 nm was then read using the Cambridge Technologies Plate Reader."}, "IgG [3]": {"system": "IgG", "test": "Coating durability using water washes, IgG binding by colloidal gold", "details": "for Absorbance (550 nm) Initial: coated polystyrene, no water wash; for Absorbance (550 nm) 1 Time 1 hr 23° C. / Absorbance (550 nm) 1 Time 24 hr 23° C. / Absorbance (550 nm) 1 Time 24 hr 37° C. / Absorbance (550 nm) 1 Time 24 hr 70° C.: dI H2O wash 1 time; for Absorbance (550 nm) 6 Times 30 min each 23° C.: dI H2O wash 6 times", "experimental": "Polystyrene plates having 24 wells (Corning Costar #9447) were coated with these surfactants as described in Materials and Methods. Durability was tested by adding dI H2O to the wells of a test plate (3.0 mls/well), following which the plate was placed on a rocker table. […] The protein solution was incubated with the plate on a rocker table for 30 minutes at 23° C., following which the plate was H2O rinse 3× (3 mls each time). The colloidal gold staining procedure described above was used to reveal bound protein. The staining comprised an overnight incubation on a rocker table at 23° C., a dI H2O rinse, drying at room temperature, and reading at 550 nm."}, "Horse IgG": {"system": "Horse IgG", "test": "Protein binding by colloidal gold staining, coated medium binding polystyrene plates", "details": "coated medium binding PS; IgG 10 μg/ml, pH 9.4", "experimental": "Except where indicated, the non-ionic surfactants were applied to the hydrophobic surfaces being tested as a 0.1% (weight/volume) solution in isopropanol. A sufficient amount of coating solution was used to cover the surface being testing with a thin layer of the solution (e.g., 25 μl of the solution per well for a standard 24-well plate). In some cases, the solution was applied to surface by spraying; in others, it was poured onto the surface (into the well). Except where indicated, coated samples were either dried at 70° C. for 30 minutes in an air circulated oven or dried at room temperature overnight to evaporate the isopropanol.\nProtein binding was determined in some examples using a colloidal gold straining procedure. In accordance with this procedure, colloidal gold becomes electrostatically attached to bound protein and is detected by measuring absorbance at 550 nanometers. Bio-Rad Laboratories' Colloidal Gold Total Protein Stain was used for this purpose, with absorbance being measured with a Cambridge Technologies Plate Reader (No. 7520).\nThe surfactants were coated onto medium binding polystyrene plates (Corning Costar No. 2587) as described in Material and Methods.\nThe plates were incubated with IgG as follows: 0.1 ml of Horse IgG (Pierce Labs) at a working concentration of 10 μg/ml in 0.10M NaHCO3 buffer (pH9.4) were added to each well, incubated 30 minutes on a rocker table, and rinsed with dI H2O. The plates were gold stained overnight (0.3 ml/well), rinsed in dI H2O, air dried, and absorbance was measured at 550 nm."}, "HRP-Goat A'Mouse IgG": {"system": "HRP-Goat A'Mouse IgG", "test": "Enzymatic determination of protein binding to coated medium binding polystyrene plate", "details": "coated medium binding PS; versus uncoated high binding polystyrene plate; absorbance 405 nm", "experimental": "The surfactants were coated onto a medium binding polystyrene plate (Corning Costar No. 2587) as described in Material and Methods. A medium binding polystyrene plate (Corning Costar No. 2587) and a high binding polystyrene plate (Corning Costar No. 2581) were used as controls.\n(a) HRP-Goat A'Mouse IgG: Kirkegaard & Perry Laboratories, Inc. Catalog No. 074-1806. Stock solution: 0.5 mg/ml; working concentration: 0.04 μg/ml. The working concentration was obtained by adding 11 μl of the stock solution per 25 mls of PBS pH 7.4 to produce a work stock (WS), and then diluting 1:6 (i.e., 10 mls WS+50 mls PBS pH 7.4).\n(1) 100 μl-well of HRP-Goat A'Mouse IgG at a concentration of 0.04 μg/ml were added to the test wells and incubated for 1 hour at room temperature.\n(2) The wells were then washed 5 times with the 1M wash solution. Each wash include a 5 minute soak followed by decanting.\n(3) 100 μl/well of substrate (30 mls ABTS+30 mls H2O2) were added to the test wells and incubated for 15 minutes at room temperature in the dark.\n(4) 100 μl/well of stopping solution (1% SDS) were added to the test wells.\n(5) The plates were then shaken and read at 405 nm.\n(6) Reduction in binding was determined by comparing the absorbance measured in step (5) with the absorbance measured for a high binding polystyrene plate which had not been treated with a non-ionic surfactant but otherwise subjected to steps (1) to (5)."}, "BSA": {"system": "BSA", "test": "Polymer blends molded into petri dishes, BSA binding by colloidal gold", "method": "(§1) Low binding non-ionic surfactant molecules were blended at 5% (except as noted in Table 13) into a base polymer using a twin screw extruder, then injection molded into the shape of 35 mm petri dishes. Proteins tested were BSA and Fetal Bovine Serum (FBS). Protein binding was determined using a colloidal gold staining procedure as described above. In the case of the polypropylene and EVA blends, a silver enhancer was used (Sigma Chem. Co., St, Louis, Mo., Kit #SE-100)."}, "Fetal Bovine Serum (FBS)": {"system": "Fetal Bovine Serum (FBS)", "test": "Polymer blends molded into petri dishes, FBS protein binding by colloidal gold", "method": "as §1"}, "[4]": {"details": "blended at 5% into polypropylene, silver enhancer"}}, "note": "Marks after values point to notes of the source that are not given here."}
{"substance": "PEO(200) DI-OLEATE", "values": [{"measurement": "Bound Protein Absorbance at 550 nm", "setting": "IgG [1]", "result": 0.15}]}
{"substance": "PEO(400) DI-OLEATE", "values": [{"measurement": "Bound Protein Absorbance at 550 nm", "setting": "IgG [1]", "result": 0.15}]}
{"substance": "PEO(400) DI-STEARATE", "values": [{"measurement": "Bound Protein Absorbance at 550 nm", "setting": "IgG [1]", "result": 0.10}]}
{"substance": "PEO(600) DI-STEARATE", "values": [{"measurement": "Bound Protein Absorbance at 550 nm", "setting": "IgG [1]", "result": 0.10}]}
{"substance": "SORBITOL MONO-LAURATE", "values": [{"measurement": "Absorbance (550 nm) pH = 9.2", "setting": "[2]", "result": 0.00}, {"measurement": "Absorbance (550 nm) pH = 7.4", "setting": "[2]", "result": 0.00}, {"measurement": "Absorbance (550 nm) pH = 4.6", "setting": "[2]", "result": 0.00}, {"measurement": "Absorbance (550 nm) Initial", "setting": "IgG [3]", "result": 0.00}, {"measurement": "Absorbance (550 nm) 1 Time 1 hr 23° C.", "setting": "IgG [3]", "result": 0.00}, {"measurement": "Absorbance (550 nm) 1 Time 24 hr 23° C.", "setting": "IgG [3]", "result": 0.00}, {"measurement": "Absorbance (550 nm) 1 Time 24 hr 37° C.", "setting": "IgG [3]", "result": 0.00}, {"measurement": "Absorbance (550 nm) 1 Time 24 hr 70° C.", "setting": "IgG [3]", "result": "0.00-0.02"}, {"measurement": "Absorbance (550 nm) 6 Times 30 min each 23° C.", "setting": "IgG [3]", "result": "0.02-0.06"}, {"measurement": "IgG Protein Binding Absorbance (550 nm)", "setting": "Horse IgG", "result": 0.00}]}
{"substance": "SORBITOL MONO-STEARATE", "values": [{"measurement": "% Reduction in Protein Binding", "setting": "HRP-Goat A'Mouse IgG", "result": "83.1* %"}, {"measurement": "Absorbance (550 nm) pH = 9.2", "setting": "[2]", "result": 0.00}, {"measurement": "Absorbance (550 nm) pH = 7.4", "setting": "[2]", "result": 0.00}, {"measurement": "Absorbance (550 nm) pH = 4.6", "setting": "[2]", "result": 0.00}, {"measurement": "Absorbance (550 nm) Initial", "setting": "IgG [3]", "result": 0.00}, {"measurement": "Absorbance (550 nm) 1 Time 1 hr 23° C.", "setting": "IgG [3]", "result": 0.00}, {"measurement": "Absorbance (550 nm) 1 Time 24 hr 23° C.", "setting": "IgG [3]", "result": 0.00}, {"measurement": "Absorbance (550 nm) 1 Time 24 hr 37° C.", "setting": "IgG [3]", "result": 0.00}, {"measurement": "Absorbance (550 nm) 1 Time 24 hr 70° C.", "setting": "IgG [3]", "result": 0.00}, {"measurement": "Absorbance (550 nm) 6 Times 30 min each 23° C.", "setting": "IgG [3]", "result": 0.00}, {"measurement": "IgG Protein Binding Absorbance (550 nm)", "setting": "Horse IgG", "result": 0.00}, {"measurement": "Bound Protein Absorbance (550 nm) BSA", "setting": "BSA; [4]", "result": 0.000}, {"measurement": "Bound Protein Absorbance (550 nm) FBS", "setting": "Fetal Bovine Serum (FBS); [4]", "result": 0.000}]}
{"substance": "SORBITOL TRI-STEARATE", "values": [{"measurement": "Bound Protein Absorbance (550 nm) BSA", "setting": "BSA; blended at 5% into polystyrene", "result": 0.005}, {"measurement": "Bound Protein Absorbance (550 nm) FBS", "setting": "Fetal Bovine Serum (FBS); blended at 5% into polystyrene", "result": 0.008}]}
